From patent publication US20100048705A1, “METHODS OF TREATING AND PREVENTING NEOVASCULARIZATION WITH OMEGA-3 POLYUNSATURATED FATTY ACIDS” (CHILDREN'S MEDICAL CENTER CORPORATION, priority 2006, published 2010)
Entries after “also recorded” stand apart in the source; their conditions may differ.

How the values were obtained:
[1] = test system: mice with oxygen-induced retinopathy; experiment: Oxygen-induced retinopathy model: vaso-obliteration and retinal neovascularization at P17; assay type: in vivo, mouse; settings: for decrease in vessel loss (VO) compared to vehicle control / decrease in neovascularization (Tufts) compared to vehicle-treated mice: 10 ng i.p. daily P6-P17, read at P17; for decrease in vessel loss (VO) compared to vehicle control / protection from vaso-obliteration compared to saline-injected controls: FIG. 7a; for decrease in neovascularization (Tufts) compared to vehicle-treated mice / neovascularization at P17 compared to saline controls: FIG. 7b; for neovascularization at P17 compared to saline controls / protection from vaso-obliteration compared to saline-injected controls: 10 ng/day i.p. P6-P17
Text: Retinopathy is modeled in the mouse eye with oxygen-induced vessel loss which precipitates hypoxia-induced retinopathy^1. One-week-old C57BL/6J mice are exposed to 75% oxygen for 5 days and then to room air. A fluorescein-dextran perfusion method is used to assess the vascular pattern. The proliferative neovascular response is quantified by counting the nuclei of new vessels extending from the retina into the vitreous in 6 microns sagittal cross-sections. Cross-sections are also stained for glial fibrillary acidic protein (GFAP). Fluorescein-dextran angiography delineates the entire vascular pattern, including neovascular tufts in flat-mounted retinas. Hyperoxia-induced neovascularization occurs at the junction between the vascularized and avascular retina in the mid-periphery. Retinal neovascularization occurs in all the pups between postnatal day 17 and postnatal day 21. This serves as a reproducible and quantifiable mouse model of oxygen-induced retinal neovascularization for the study of pathogenesis of retinal neovascularization as well as for the study of medical intervention for ROP and other retinal angiopathies in humans. This model allows assessment of retinal vessel loss, vessel re-growth after injury and pathological angiogenesis^1.
Litters of mice were subjected to the oxygen induced retinopathy model. Briefly, mice (pups with mothers) on normal chow were placed in 75% oxygen at postnatal day 7, and kept at 75% oxygen for five days. Mice were then returned to room air. During this room air phase (P12-P17) the retina becomes hypoxic due to the vessel regression that occurred while mice were in hyperoxia. Here mice were given either an omega-3 or omega-6 LCPUFA diet. At p12 (once out of oxygen, after vessel loss) or at P15 (a few days later as retinopathy was setting in).
Animals. These studies adhered to the ARVO Statement for the Use of Animals in Ophthalmic and Vision Research. Fat-1 transgenic mice contain a humanized fat-1 cDNA driven by the cytomegalovirus enhancer and a chicken β-actin promoter^9. Fat-1 and control dams were fed a defined diet with elevated omega-6 polyunsaturated fatty acids. For diet studies C57Bl/6 mothers at delivery (unless otherwise indicated for FIG. 12) were fed a defined rodent diet with 10% (w/w) safflower oil containing 2% omega-6 polyunsaturated fatty acids (AA) and no omega-3 polyunsaturated fatty acids or the same defined diet except for 2% omega-3 polyunsaturated fatty acids (DHA and EPA) and no omega-6 polyunsaturated fatty acids (AA). (Table 1) Diets were stable over time and with oxygen exposure (Table 2), unless otherwise indicated.
(§1) O2-induced retinopathy (vessel degeneration, re-growth and pathological neovascularization). To induce vessel loss, postnatal day 7 (P7) mice with their nursing mother were exposed to 75% oxygen for times ranging from 24 hours to 5 days^1. To evaluate vaso-obliteration following 24 hours of oxygen exposure, P8 mice were anesthetized at with Avertin (Sigma) and perfused with 50 μl of 120 mg/ml FITC-dextran (2×10^6 molecular weight, FD2000S-5G, Sigma) in saline through the left ventricle^21. Eyes were enucleated and fixed in 4% paraformaldehyde for 2 h at 4° C. Retinas were isolated and whole-mounted with SlowFade Antifade reagent (S2828, Molecular Probes) onto polylysin-coated slides with the photoreceptor side up. Retinas were examined with a fluorescence microscope (Olympus, Tokyo), digitized images using a three-charge-coupled device color video camera (DX-950P, Sony), and processed with NORTHERN ECLIPSE software (Empix Imaging, Toronto). Retinal neovascularization was evaluated 5 days after oxygen exposure (P7-P12) at P17 when the neovascular response is greatest. P17 mice were given a lethal dose of Avertin (Sigma) and their eyes were enucleated and fixed in 4% paraformaldehyde for 2 h at 4° C. […]

[2] = test system: mice exposed to 75% oxygen; experiment: Oxygen-induced vessel loss (vaso-obliteration) at P8 after 24 hours of 75% oxygen; assay type: in vivo, mouse; settings: 10 ng i.p. P5-P8; FIG. 7c
Protocol: as §1, with “greatest.” for “greatest. P17 mice were given a lethal dose of Avertin (Sigma) and their eyes were enucleated and fixed in 4% paraformaldehyde for 2 h at 4° C.”
Quantification of vaso-obliteration and retinal neovascularization. […] Vaso-obliteration and neovascular tuft formation were quantified by comparing the number of pixels in the affected areas with the total number of pixels in the retina. […]
Resolvins and Neurorotectins. […] Retinas collected at P17 from omega-6 or omega-3 polyunsaturated fatty acid fed dams and exposed to high oxygen or room air conditions were analyzed to determine lipid mediator profiles. Polyunsaturated fatty acid derived products were extracted, identified, and quantified using a deuterium-labelled internal standard and MS-MS based mediator informatics^23. […] Following retinal staining and whole-mounting, neovascularization and vaso-obliteration were quantified at P17. Vaso-obliteration was also assessed at P8 (after 24 hours of 75% oxygen exposure) in pups given 10 ng of RvD1 (n=7), RvE1 (n=9), NPD1 (n=7), or saline/EtOH vehicle injections (n=6) i.p. from P5-P8. […]

[3] = test system: TNF-α; settings: literature refs 14, 15, 16; cited from earlier work

Compound	decrease in vessel loss (VO) compared to vehicle control [1]	decrease in neovascularization (Tufts) compared to vehicle-treated mice [1]	neovascularization at P17 compared to saline controls [1]	protection from vaso-obliteration compared to saline-injected controls ([1]; P17)	oxygen-induced vessel loss at P8 versus saline-injected control [2]	TNF-α mRNA expression levels in inflammatory models [3]	vaso-obliteration versus fellow saline-injected eye ([1]; intraocular (intravitreous) 12.5 μg at P12, omega-6 fed mice, P17, FIG. 11a)	retinal neovascularization versus fellow saline-injected eye ([1]; intraocular (intravitreous) 12.5 μg at P12, omega-6 fed mice, P17, FIG. 11b)	vaso-obliteration (vessel loss) versus saline injected controls ([1]; intraperitoneal, 500 μg/mouse at P7, P12, P14, P16, omega-6 fed mice, P17, FIG. 10a)	pathologic neovascularization versus saline injected controls ([1]; intraperitoneal, 500 μg/mouse at P7, P12, P14, P16, omega-6 fed mice, P17, FIG. 10b)
CC[C@@H](O)/C=C/C=C\C[C@@H](O)/C=C/C=C/C=C\[C@@H](O)CCCC(=O)O [RvE1, 5S,12R,18R-trihydroxy-6Z,8E,10E,14Z,16E-eicosapentaenoic acid]	40%	30%	less neovascularization	significant protection	No apparent differences; also recorded: no protective action	significantly reduce				
etanercept [reference compound]							significantly reduce	suppressed; also recorded: significantly improved	significantly protected; also recorded: significant reduction	significantly protected; also recorded: significant reduction
CC/C=C\C[C@H](O)/C=C/C=C\C=C\C=C\[C@@H](O)[C@@H](O)C/C=C\CCC(=O)O [RvD1, 7S,8R,17S-trihydroxy-docosa-4Z,9E,11E,13Z,15E,19Z-hexaenoic acid]	40%	30%	less neovascularization	significant protection	No apparent differences	significantly reduce				
CC/C=C\C[C@H](O)\C=C/C=C/C=C/[C@H](O)C/C=C\C/C=C\CCC(=O)O [NPD1, 10R,17S dihydroxy-docosa-4Z,7Z,11E,13E,15Z,19z-hexaneoic acid]	40%	30%	less neovascularization	significant protection	No apparent differences; also recorded: no protective action	significantly reduce				
